What was measured:
[1] = system: Spontaneously Hypertensive Rats; assay: Hypotensive activity: mean arterial blood pressure in spontaneously hypertensive rats; format: in vivo, rat (Okamoto strain, male); settings: SHR, gavage, 100 mg/kg or less, two doses 24 h apart, measured at 28 hours; average MABP of rats used 160±1.5 mm
Description: The novel compounds of the invention are active hypotensive agents at nontoxic doses when administered to mammals. These compounds were tested for hypotensive activity by the method of P. S. Chan and D. W. Poorvin, Clinical and Experimental Hypertension, (6), 817-830 (1979). Male, 16 week old, spontaneously hypertensive rats of the Okamoto strain (Taconic Farms, Germantown, N.Y.) having an average means arterial blood pressure of 160±1.5 mm of mercury are used in the test. A rat is dosed by gavage with a test compound, suspended in 2% pre-boiled starch at a concentration of 50 mg/ml, at a dose of 100 mg/kg of body weight or less, with 0.9% sodium chloride loading at a dose of 25 ml/kg of body weight. A second identical dose of the test compound, without sodium chloride loading is given 24 hours later. At 28 hours after the initial dose the mean arterial blood pressure is measured by the method of Chan and Poorvin vide supra.

[2] = system: mice (hypoxic environment); assay: Hypoxic survival test; format: in vivo, mouse (Royal Hart); settings: 10% oxygen; for responders at 100 mg/kg: Mus musculus, ip, 5 min, read-out: % Survivors
Description: The hypoxic survival test is a useful in vivo test for measuring the effectiveness of central nervous system-acting drugs in enhancing survival in an hypoxic environment relative to the known parasympathomimetic agent physostigmine.
Drugs are tested by intraperitoneal injection of groups of mice 30 minutes prior to placing them in an hypoxic environment and measuring survival. The rationale of this test is that drugs which enhance survival under hypoxic conditions without concomitant depression or sedative side effects, do so by enhancing brain metabolism, i.e., by improving energy supply relative to demand and so preserving normal brain function under conditions of reduced energy metabolism. Considering the dependence of the brain on a constant supply of energy, drugs which have this property may have many far-reaching therapeutic indications, including aiding recovery from stroke and closed head injury and reducing the deleterious effects of age-related central nervous system deficits.
In the hypoxic survival test, groups of 20 Royal Hart mice (6 weeks of age) were injected intraperitoneally with a test compound in saline at various doses ranging from 1 to 200 mg/kg, 30 minutes prior to placing them in an hypoxic mixture (10% oxygen, 90% […]) and measuring survival after 5 minutes.
A control group of 20 mice was injected intraperitoneally with saline (0.01 ml/g of body weight) and processed as described above.
Another group of 20 mice was injected intraperitoneally with 0.125 mg/kg of physostigmine in saline and processed as described above.

[3] = 100 mg/kg, intraperitoneal, 5 minutes

| Structure (SMILES) | MABP/mmHg (mean arterial blood pressure) [1] [mmHg] | further results |
| --- | --- | --- |
| N#Cc1cnn2c1N(C(=O)CN1CCN(C(c3ccccc3)c3ccc(Cl)cc3)CC1)CC=C2c1cccc(C(F)(F)F)c1 (centres unmarked) [Example 21, 4-[[4-[(4-Chlorophenyl)phenylmethyl]-1-piperazinyl]acetyl]-4,5-dihydro-7-[3-(trifluoromethyl)phenyl]pyrazolo[1,5-a]pyrimidine-3-carbonitrile] | 134 |  |
| N#Cc1cnn2c1N(C(=O)CN1CCN(c3ccccc3)CC1)CC=C2c1cccc(C(F)(F)F)c1 [Example 25, 4,5-Dihydro-4-[(4-phenyl-1-piperazinyl)acetyl]-7-[3-(trifluoromethyl)phenyl]pyrazolo[1,5-a]pyrimidine-3-carbonitrile] | 137 |  |
| N#Cc1cnn2c1N(C(=O)CN1CCN(c3cccc(Cl)c3)CC1)CC=C2c1cccc(C(F)(F)F)c1 [Example 26, 4-[[4-(3-Chlorophenyl)-1-piperazinyl]acetyl]-4,5-dihydro-7-[3-(trifluoromethyl)phenyl]pyrazolo[1,5-a]pyrimidine-3-carbonitrile] | 124 |  |
| N#Cc1cnn2c1N(C(=O)CN1CCN(c3ncccn3)CC1)CC=C2c1cccc(C(F)(F)F)c1 [Example 28, 4,5-Dihydro-4-[[4-(2-pyrimidinyl)-1-piperazinyl]acetyl]-7-[3-(trifluoromethyl)phenyl]pyrazolo[1,5-a]pyrimidine-3-carbonitrile] | 127 |  |
| N#Cc1cnn2c1N(C(=O)CN1CCN(c3ccc(F)cc3)CC1)CC=C2c1cccc(C(F)(F)F)c1 [Example 31, 4-[[4-(4-Fluorophenyl)-1-piperazinyl]acetyl]-4,5-dihydro-7-[3-(trifluoromethyl)phenyl]pyrazolo[1,5-a]pyrimidine-3-carbonitrile] | 130 |  |
| N#Cc1cnn2c1N(C(=O)CCN1CCN(Cc3ccc(Cl)cc3)CC1)CC=C2c1cccc(C(F)(F)F)c1 [Example 35, 4-[3-[4-[(Chlorophenyl)methyl]-1-piperazinyl]-1-oxopropyl]-4,5-dihydro-7-[3-(trifluoromethyl)phenyl]pyrazolo[1,5-a]pyrimidine-3-carbonitrile] | 138 |  |
| N#Cc1cnn2c1N(C(=O)CN1CCN(C(c3ccc(F)cc3)c3ccc(F)cc3)CC1)CC=C2c1cccc(C(F)(F)F)c1 [Example 40, 4-[[4-[Bis(4-fluorophenyl)methyl]-1-piperazinyl]acetyl]-4,5-dihydro-7-[3-(trifluoromethyl)phenyl]pyrazolo[1,5-a]pyrimidine-3-carbonitrile] | 121 |  |
| CCC1=C(c2cccc(C(F)(F)F)c2)n2ncc(C#N)c2N(C(=O)CN2CCN(Cc3ccccc3)CC2)C1 [Example 161, 4,5-Dihydro-6-ethyl-4-[[4-(phenylmethyl)-1-piperazinyl]acetyl]-7-[3-(trifluoromethyl)phenyl]pyrazolo[1,5-a]pyrimidine-3-carbonitrile] |  | responders at 100 mg/kg [2, 3]: 25% |
| COc1ccc(C(=O)N2CCN(CC(=O)N3CC=C(c4cccc(C(F)(F)F)c4)n4ncc(C#N)c43)CC2)cc1 [Example 162, 4,5-Dihydro-4-[[4-(4-methoxybenzoyl)-1-piperazinyl]acetyl]-7-[3-(trifluoromethyl)phenyl]pyrazolo[1,5-a]pyrimidine-3-carbonitrile] |  | responders at 100 mg/kg [2, 3]: 45% |
| COc1ccc(C(=O)N2CCN(CC(=O)N3CC=C(c4cccc(C(F)(F)F)c4)n4ncc(C#N)c43)CC2)cc1.Cl [Example 163, 4,5-Dihydro-4-[[4-(4-methoxybenzoyl)-1-piperazinyl]acetyl]-7-[3-(trifluoromethyl)phenyl]pyrazolo[1,5-a]pyrimidine-3-carbonitrile, monohydrochloride] |  | % Survivors [2, 3]: 25% |
| CNC(=O)Oc1ccc2c(c1)[C@]1(C)CCN(C)[C@@H]1N2C [physostigimine, reference compound] |  | mice surviving (physostigmine-treated) ([2]; after 5 minutes, physostigmine group 0.125 mg/kg intraperitoneal): 60-80% |
